Experimental data: ChEMBL document CHEMBL1149699, “Structure-activity relationships of 3,4-dihydro-1H-quinazolin-2-one derivatives as potential CDK5 inhibitors” (Bioorg Med Chem, 2007)

Experiments:
[1] = target: T1, Cyclin-dependent kinase 5/CDK5 activator 1 (Homo sapiens, UniProt Q00535); assay: Inhibition of human His-tagged p25/CDK5; format: protein-complex assay
[2] = target: T1, Cyclin-dependent kinase 5/CDK5 activator 1; assay: Inhibition of human CDK5/p25 by HTRF assay; format: protein-complex assay
[3] = target: Mitogen-activated protein kinase 3 (Homo sapiens, UniProt P27361); assay: Inhibition of human Erk1
Mitogen-activated protein kinase 3, sequence (P27361 whole entry): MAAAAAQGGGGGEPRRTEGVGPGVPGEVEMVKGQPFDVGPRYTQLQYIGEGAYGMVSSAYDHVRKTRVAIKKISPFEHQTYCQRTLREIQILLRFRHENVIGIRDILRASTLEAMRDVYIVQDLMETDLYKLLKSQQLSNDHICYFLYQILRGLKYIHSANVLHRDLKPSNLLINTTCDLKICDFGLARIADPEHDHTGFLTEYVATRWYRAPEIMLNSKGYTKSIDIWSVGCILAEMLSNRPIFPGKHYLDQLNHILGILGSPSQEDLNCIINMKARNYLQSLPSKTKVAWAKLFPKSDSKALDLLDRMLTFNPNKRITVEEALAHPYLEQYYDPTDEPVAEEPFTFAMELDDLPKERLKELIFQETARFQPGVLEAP

[4] = Inhibition of human His-tagged cyclin 2/CDK2 by HTRF assay
[5] = Inhibition of human PKA
[6] = target: Mitogen-activated protein kinase 9 (Homo sapiens, UniProt P45984); assay: Inhibition of human JNK2
Mitogen-activated protein kinase 9, sequence (P45984 whole entry): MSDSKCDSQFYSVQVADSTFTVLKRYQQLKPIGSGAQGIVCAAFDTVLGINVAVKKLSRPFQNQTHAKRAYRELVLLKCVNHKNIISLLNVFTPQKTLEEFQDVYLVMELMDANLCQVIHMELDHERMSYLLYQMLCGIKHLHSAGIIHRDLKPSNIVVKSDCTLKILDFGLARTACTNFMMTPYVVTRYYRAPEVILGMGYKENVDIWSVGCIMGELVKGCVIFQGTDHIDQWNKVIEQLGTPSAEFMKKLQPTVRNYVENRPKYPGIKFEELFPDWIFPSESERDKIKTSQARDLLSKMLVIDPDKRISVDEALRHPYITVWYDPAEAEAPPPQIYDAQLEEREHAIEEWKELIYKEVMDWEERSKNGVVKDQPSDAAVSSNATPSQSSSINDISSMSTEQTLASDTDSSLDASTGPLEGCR

[7] = target: Mitogen-activated protein kinase 14 (Homo sapiens, UniProt Q16539); assay: Inhibition of human p38 alpha
Mitogen-activated protein kinase 14, sequence (Q16539 whole entry): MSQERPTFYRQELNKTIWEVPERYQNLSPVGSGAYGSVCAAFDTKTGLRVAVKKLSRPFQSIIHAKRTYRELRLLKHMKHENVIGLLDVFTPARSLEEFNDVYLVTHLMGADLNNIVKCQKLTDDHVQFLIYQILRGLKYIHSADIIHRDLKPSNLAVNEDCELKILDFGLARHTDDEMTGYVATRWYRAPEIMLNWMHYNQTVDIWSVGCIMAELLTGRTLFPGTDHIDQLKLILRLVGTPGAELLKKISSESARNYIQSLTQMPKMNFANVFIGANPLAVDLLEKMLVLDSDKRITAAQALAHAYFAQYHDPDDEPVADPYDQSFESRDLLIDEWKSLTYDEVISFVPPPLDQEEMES

T1 sequence (Q00535 whole entry): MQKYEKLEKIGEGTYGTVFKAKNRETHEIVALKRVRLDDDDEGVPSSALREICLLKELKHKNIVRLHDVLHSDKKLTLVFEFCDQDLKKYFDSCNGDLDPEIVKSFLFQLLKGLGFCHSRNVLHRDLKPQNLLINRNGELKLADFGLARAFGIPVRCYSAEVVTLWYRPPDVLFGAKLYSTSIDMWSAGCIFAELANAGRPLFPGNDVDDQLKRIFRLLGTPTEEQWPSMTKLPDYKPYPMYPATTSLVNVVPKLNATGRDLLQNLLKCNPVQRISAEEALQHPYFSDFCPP
T1 sequence (Q15078 whole entry, further chain): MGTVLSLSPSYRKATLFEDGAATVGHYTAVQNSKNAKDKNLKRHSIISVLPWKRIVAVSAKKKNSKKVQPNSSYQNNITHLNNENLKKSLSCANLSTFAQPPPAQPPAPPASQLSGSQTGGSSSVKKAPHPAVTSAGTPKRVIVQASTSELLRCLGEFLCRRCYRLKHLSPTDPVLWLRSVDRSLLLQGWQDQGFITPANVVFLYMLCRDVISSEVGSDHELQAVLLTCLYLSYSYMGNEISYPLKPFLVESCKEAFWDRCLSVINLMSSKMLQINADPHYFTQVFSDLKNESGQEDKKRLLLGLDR

SMILES	IC50 [2] [nM]	further results
CN1CCN(c2cccc(NC(=O)Nc3csc(-c4ccncc4)n3)n2)CC1		IC50 [1]: 15 nM
O=C1Nc2ccccc2CN1c1nc(-c2ccncc2)no1	> 10000	
O=C1Nc2cccc(Br)c2CN1c1csc(-c2ccncc2)n1	228	
O=C1Nc2cc(-c3ccccc3)ccc2CN1c1csc(-c2ccncc2)n1	113	
Cc1cccc2c1CN(c1csc(-c3ccncc3)n1)C(=O)N2	1260	
COc1cccc2c1CN(c1csc(-c3ccncc3)n1)C(=O)N2	362	
O=C1Nc2ccc(F)cc2CN1c1csc(-c2ccncc2)n1	72	
CN1CCN(c2ccc3c(c2)CN(c2csc(-c4ccncc4)n2)C(=O)N3)CC1	1160	
O=C1Nc2ccccc2CN1c1nc(-c2cccnc2)cs1		IC50 [1]: 399 nM
Cc1ccc2c(c1)CN(c1csc(-c3ccncc3)n1)C(=O)N2	165	
O=C(Nc1ccccn1)Nc1csc(-c2ccncc2)n1	192	
O=c1[nH]c2ccccc2c(=O)n1-c1csc(-c2ccncc2)n1	> 10000	
CCc1cc(-c2nc(N3Cc4ccccc4NC3=O)cs2)ccn1		IC50 [1]: 746 nM
O=C1Nc2ccccc2CN1c1csc(-c2ccncc2)n1	79	IC50 [1]: 79 nM; IC50 [3]: > 10000 nM; IC50 [4]: 142 nM; IC50 [5]: > 10000 nM; IC50 [6]: > 10000 nM; IC50 [7]: > 10000 nM
O=C1Nc2ccccc2CN1c1cccc(-c2ccncc2)c1	> 10000	
O=C1Nc2ccccc2CN1c1nc(-c2ccncc2)ns1	616	
O=C1Nc2cccc(Cl)c2CN1c1csc(-c2ccncc2)n1	332	
O=C1Nc2ccccc2CN1c1nc(-c2ccncc2)cs1	77	IC50 [1]: 77 nM
O=C(Nc1ccccc1)Nc1csc(-c2ccncc2)n1	2990	
O=C1Nc2cc(Br)ccc2CN1c1csc(-c2ccncc2)n1	38	
CN1CCN(c2cccc3c2CN(c2csc(-c4ccncc4)n2)C(=O)N3)CC1	829	
O=c1[nH]c2ccccc2n1-c1csc(-c2ccncc2)n1	1160	
O=C1Nc2ccccc2CN1c1ccc(-c2ccncc2)s1	> 10000	
O=C1Nc2cc(F)ccc2CN1c1csc(-c2ccncc2)n1	16	IC50 [1]: 16 nM; IC50 [3]: > 10000 nM; IC50 [4]: 52 nM; IC50 [5]: > 10000 nM; IC50 [6]: > 10000 nM; IC50 [7]: > 10000 nM
O=C1Nc2ccccc2CN1c1nc(-c2ccccn2)cs1		IC50 [1]: 7360 nM
O=C1Nc2cccc(CN3CCOCC3)c2CN1c1csc(-c2ccncc2)n1	284	
O=C1Nc2cc(CN3CCOCC3)ccc2CN1c1csc(-c2ccncc2)n1	62	IC50 [1]: 62 nM; IC50 [3]: > 10000 nM; IC50 [4]: 529 nM; IC50 [5]: > 10000 nM; IC50 [6]: > 10000 nM; IC50 [7]: > 10000 nM
O=C1Nc2cccc(F)c2CN1c1csc(-c2ccncc2)n1	240	
